pIC50: −log10 of the molar value. Activity calls are given as the source filed them. The calls are words filed in the database; no cut-off is given here.
How the values were obtained:
[1] = Cytotoxicity against human Hep3B cells by MTT assay; assay type: functional, cell-based, Hep 3B2
MCF7 = test: Cytotoxicity against human MCF7 cells by MTT assay; assay type: functional, cell-based
HT-29 = test: Cytotoxicity against human HT29 cells by MTT assay; assay type: functional, cell-based
[2] = tested on: Radical scavenging activity; test: Antioxidant activity assessed as DPPH radical scavenging activity; assay type: functional
A549 [3] = test: Cell cycle arrest in human A549 cells assessed as accumulation at G2/M phase at 0.03 uM after 24 hrs by flow cytometry; assay type: functional
RAW264.7 [4] = test: Antiinflammatory activity against mouse RAW264.7 cells assessed as inhibition of LPS-induced TNFalpha formation; assay type: functional, cell-based
[5] = Antioxidant activity assessed as inhibition of superoxide radical-induced DNA damage of pBR322 at 300 uM after 20 mins by gel electrophoresis; assay type: functional
A549 [6] = test: Cell cycle arrest in human A549 cells assessed as accumulation at G1 phase at 10 uM after 24 hrs by flow cytometry; assay type: functional
A549 [7] = test: Cell cycle arrest in human A549 cells assessed as accumulation at G1 phase at 0.1 uM after 24 hrs by flow cytometry; assay type: functional
A549 [8] = test: Cell cycle arrest in human A549 cells assessed as accumulation at S phase at 0.1 uM after 24 hrs by flow cytometry; assay type: functional
[9] = Inhibition of tubulin polymerization
A549 [10] = test: Cell cycle arrest in human A549 cells assessed as accumulation at G1 phase at 0.03 uM after 24 hrs by flow cytometry; assay type: functional
A549 [11] = test: Cell cycle arrest in human A549 cells assessed as accumulation at S phase at 0.03 uM after 24 hrs by flow cytometry; assay type: functional
A549 [12] = test: Cell cycle arrest in human A549 cells assessed as accumulation at G2/M phase at 0.1 uM after 24 hrs by flow cytometry; assay type: functional
A549 [13] = test: Cytotoxicity against human A549 cells by MTT assay; assay type: functional, cell-based
A549 [14] = test: Cell cycle arrest in human A549 cells assessed as accumulation at G2/M phase at 10 uM after 24 hrs by flow cytometry; assay type: functional
A549 [15] = test: Cell cycle arrest in human A549 cells assessed as accumulation at S phase at 10 uM after 24 hrs by flow cytometry; assay type: functional
[16] = molecular target: Xanthine dehydrogenase/oxidase (Homo sapiens, UniProt P47989); test: Inhibition of xanthine oxidase
RAW264.7 [17] = test: Antiinflammatory activity against mouse RAW264.7 cells assessed as inhibition of LPS-induced nitric oxide production; assay type: functional, cell-based

Chain of Xanthine dehydrogenase/oxidase (P47989 whole entry): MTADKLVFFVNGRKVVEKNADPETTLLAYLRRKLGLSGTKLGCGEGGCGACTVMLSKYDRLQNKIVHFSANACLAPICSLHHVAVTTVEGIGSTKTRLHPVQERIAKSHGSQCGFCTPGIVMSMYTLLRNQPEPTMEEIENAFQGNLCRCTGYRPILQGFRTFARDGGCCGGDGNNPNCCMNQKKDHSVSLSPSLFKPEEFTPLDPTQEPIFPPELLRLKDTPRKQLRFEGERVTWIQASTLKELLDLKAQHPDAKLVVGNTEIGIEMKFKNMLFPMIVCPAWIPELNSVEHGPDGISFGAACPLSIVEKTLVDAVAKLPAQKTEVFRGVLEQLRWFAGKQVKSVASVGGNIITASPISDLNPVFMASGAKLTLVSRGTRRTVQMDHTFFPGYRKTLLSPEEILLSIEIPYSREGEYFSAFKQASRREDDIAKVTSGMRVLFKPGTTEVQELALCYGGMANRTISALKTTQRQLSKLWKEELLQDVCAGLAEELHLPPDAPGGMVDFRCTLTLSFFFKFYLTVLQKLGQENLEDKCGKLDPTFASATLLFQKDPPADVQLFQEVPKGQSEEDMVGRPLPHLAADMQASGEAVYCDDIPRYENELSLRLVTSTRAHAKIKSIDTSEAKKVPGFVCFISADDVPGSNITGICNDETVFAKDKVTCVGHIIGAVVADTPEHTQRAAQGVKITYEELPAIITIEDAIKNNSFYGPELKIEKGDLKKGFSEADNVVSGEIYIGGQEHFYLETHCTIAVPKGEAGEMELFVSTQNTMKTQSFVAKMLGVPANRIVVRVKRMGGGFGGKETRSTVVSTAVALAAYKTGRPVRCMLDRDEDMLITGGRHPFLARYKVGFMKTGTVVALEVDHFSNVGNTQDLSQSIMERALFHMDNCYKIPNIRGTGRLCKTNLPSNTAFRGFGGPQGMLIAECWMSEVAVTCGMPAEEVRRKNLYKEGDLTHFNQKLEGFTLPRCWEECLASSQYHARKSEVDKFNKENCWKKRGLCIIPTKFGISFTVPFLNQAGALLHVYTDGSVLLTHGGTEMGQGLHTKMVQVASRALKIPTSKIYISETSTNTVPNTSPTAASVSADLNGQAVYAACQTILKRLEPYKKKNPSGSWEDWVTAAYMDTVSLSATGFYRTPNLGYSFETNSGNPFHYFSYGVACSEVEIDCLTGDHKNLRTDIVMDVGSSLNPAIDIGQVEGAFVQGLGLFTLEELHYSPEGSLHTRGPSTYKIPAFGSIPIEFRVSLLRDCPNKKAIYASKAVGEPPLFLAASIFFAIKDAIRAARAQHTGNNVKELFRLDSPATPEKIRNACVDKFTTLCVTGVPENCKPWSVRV

| Compound | pIC50 [1] | pIC50 (MCF7) | pIC50 (HT-29) | further results |
| --- | --- | --- | --- | --- |
| CCCOc1ccc(OC)cc1C(=O)/C=C/c1ccc(C)s1 | 5.15 | 6.10 | 4.06 |  |
| O=c1[nH]cc(F)c(=O)[nH]1 [FLUOROURACIL] | 6.22 |  |  |  |
| COc1ccc(O)c(C(=O)/C=C/c2ccc(C)s2)c1 | 4.06 | 4.46 | 4.15 |  |
| Cc1ccc(/C=C/C(=O)c2ccc(O)c(O)c2O)s1 |  |  | 4.44 |  |
| CCOc1ccc(OC)cc1C(=O)/C=C/c1ccc(C)s1 | 6.70 | 5.64 | 7.00 | Activity [2]: inactive; Activity (A549 [3]): 2.104%; pIC50 (RAW264.7 [4]): 6.40; Activity [5]: Active; Activity (A549 [6]): 64.102%; Activity (A549 [7]): 65.919%; Activity (A549 [8]): 28.384%; Activity [9]: Active; Activity (A549 [10]): 70.207%; Activity (A549 [11]): 27.69%; Activity (A549 [12]): 5.698%; pIC50 (A549 [13]): 5.20; Activity (A549 [14]): 11.627%; Activity (A549 [15]): 24.271%; pIC50 [16]: 3.88 |
| COc1ccc(C(=O)/C=C/c2ccc(C)s2)c(O)c1O | 4.97 | 4.68 | 4.27 |  |
| Cc1ccc(/C=C/C(=O)c2cc(OC(C)C)ccc2O)s1 | 4.09 | 4.81 | 4.52 |  |
| CCCCOc1ccc(O)c(C(=O)/C=C/c2ccc(C)s2)c1 | 4.04 | 4.41 | 4.15 |  |
| CCOc1ccc(OCC)c(C(=O)/C=C/c2ccc(C)s2)c1 | 4.50 | 5.85 | 5.49 | Activity [2]: inactive; Activity [5]: Active; pIC50 (A549 [13]): 5.36; pIC50 (RAW264.7 [17]): 4.78; pIC50 [16]: 4.67 |
| CCCCOc1ccc(OC)cc1C(=O)/C=C/c1ccc(C)s1 | 4.97 | 4.86 | 4.21 | pIC50 (RAW264.7 [17]): 4.55 |
| CCOc1ccc(O)c(C(=O)/C=C/c2ccc(C)s2)c1 | 4.04 | 4.63 | 4.36 |  |
| Cc1ccc(/C=C/C(=O)c2cc(OCC(C)C)ccc2O)s1 | 4.26 | 4.89 | 4.51 |  |
| CCCOc1ccc(O)c(C(=O)/C=C/c2ccc(C)s2)c1 | 4.63 | 4.67 | 3.90 |  |
| CCCCCOc1ccc(O)c(C(=O)/C=C/c2ccc(C)s2)c1 | 3.95 | 4.32 | 4.06 |  |

— ChEMBL document CHEMBL1155829, “Synthesis and cytotoxic, anti-inflammatory, and anti-oxidant activities of 2',5'-dialkoxylchalcones as cancer chemopreventive agents” (Bioorg Med Chem, 2008)
